Source: US20230312601A1, “THIAZOLO[5,4-B]PYRIDINE MALT-1 INHIBITORS” (AbbVie Inc., priority 2022, published 2023)

Assays:
human MALT-1 protein = human MALT-1 protein (Homo sapiens (Human), UniProt Q9UDY8); experiment: MALT-1 Biochemical Assay (Quench-FRET enzyme assay); settings: human MALT-1 6 nM, substrate 2 μM, 40 min preincubation
From the text: A Quenched Fluorescence Resonance Energy Transfer (Quench-FRET) enzyme assay was used to test the ability of exemplary MALT-1 inhibitors Example 1 to Example 39 to inhibit the cleavage of a MALT1 specific quenched fluorescent substrate of sequence [TAMRA-PEG2-Leu-Val-Ser-Arg-Gly-Ala-Ala-Ser-PEG2-K(QSY7) by human MALT-1 protein; where TAMRA is 6-carboxytetramethylrhodamine, PEG2 is 2-(2-(2-aminoethoxy)ethoxyamide linker, QSY7 is a non-fluorescent quenching dye (Thermo-Fisher catalog #Q10193). The assay was performed by pre-dispensing compounds into 384 well Proxiplates™ (PE 6008289). Human MALT-1 (6 nM) was prepared using the assay buffer (25 mM HEPES pH 7.5, 1 mM ethylenediaminetetraacetic acid, 0.8 M sodium citrate, 0.005% Bovine serum albumin (BSA), 2 mM dithiothreitol (DTT)) and added to the compound plates. The plates were incubated 40 minutes at room temperature. The reaction was carried out by adding the substrate (2 μM) to the plates and incubating for 60 minutes at room temperature. A fluorescence readout was then measured using a PE EnVision® reader (Ex.535/Em.590). […] EC50 is defined as the half maximal effective concentration of compound to inhibit MALT-1 protease activity.

OCI-LY3 IL6 = experiment: MALT-1 Cell IL-6 AlphaLISA Assay; format: cell-based; settings: Homo sapiens; OCI-LY3 cells, 48 hours incubation; read-out: OCI-LY3 IL6 48 hour Inhibition EC50
Description: The following MALT-1 Cell Interleukin-6 (IL-6) AlphaLISA assay was conducted using a Perkin Elmer® IL-6 AlphaLISA® detection kit (PE AL223). The IL-6 detection assay is a homogeneous immunoassay that detects human IL-6 present in the cell culture medium in the MALT-1 dependent human ABC-DLBCL cell line, OCI-LY3. Compounds were pre-dispensed into Black 384w microtiter plates (Greiner, 781090) from 30 μM to 1.5 nM. Viable OCI-LY3 cells were then seeded on top of compounds at a seeding density of 50,000 cells/mL. Plates were then placed into 37° C. incubators for 48 hours. After 48 hours incubation, 2 μL of cell medium from each well was transferred into white ProxiPlates™ (PE 6008289). A fresh mix of AlphaLISA Acceptor beads (10 μg/mL) and Biotinylated IL-6 Antibody (1 nM) was made in AlphaLISA Immunoassay buffer and added to all wells (4 μL). The plates were incubated for 60 minutes at room temperature. Streptavidin donor beads (40 μg/mL) were prepared using the assay buffer and added to all wells (5 The plates were incubated for 30 minutes at room temperature and read using PE EnVision® reader. Results are shown in Table 3.

CYP 3A4 mRNA = experiment: CYP3A4 Induction Assay (qPCR, human hepatocytes); format: in vitro ADME; settings: 10 μM compound; for CYP3A4 % of positive control (%): relative to rifampicin 10 μM
Description: (§1) CYP induction by compounds of the Examples was evaluated in vitro by determining the expression levels of CYP 3A4 mRNA using the qPCR (quantitative polymerase chain reaction) assay. On day one, cryopreserved human hepatocytes were thawed in prewarmed (37° C.) thawing medium (cryopreserved hepatocyte recovery medium, Gibco™ CM 7000; Thermo Fisher Scientific), centrifuged (1000 g for 10 minutes) and resuspended in plating medium (Gibco™ CM3000—Williams Medium E supplemented with hepatocytes plating supplement pak-serum containing; Thermo Fisher Scientific). Cells were counted by trypan blue exclusion using a hemocytometer and adjusted to a cell density of […]. Thereafter, […] of cell suspension was aliquoted per well in a 96-well plate, resulting in 60,000 cells/well. Plates were shaken in the north-south and east-west direction during plating. Plated cells were incubated at 37° C/5% CO2 in a humidified cell culture incubator for 4-6 hours. During this time, incubation medium (Gibco™ CM4000, cell maintenance supplement pack; Thermo Fisher Scientific) was mixed with Gibco™ Geltrex™ (Thermo Fischer Scientific) at the appropriate GeltrexTM protein concentration. Following recovery, medium was removed from cells and replaced with freshly prepared incubation medium. Cells were incubated overnight in a cell culture incubator (37° C./5% CO2).
(§2) The next day the incubation medium was prepared by combining the hepatocyte maintenance supplement pack with Williams Medium E. The medium was warmed to 37° C. 1000× dimethyl sulfoxide compound stocks of the compounds of the Examples were prepared to the desired concentrations. 10 mM compound stocks in dimethyl sulfoxide were diluted (1 μL to 1 mL CM4000; final concentration=10 μM). Overlay medium was aspirated and […] dose solution added to the desired labeled 96 well plate. Cells were then dosed with compound (10 μM) and prototypical induces at the targeted concentrations either 50 i.tM for omeprazole (Sigma 0104/lotBCBF-2161V) or 10 i.tM for rifampicin (Sigma R3501/lot 011M1159V). A negative control, probenecid, was dosed at 10 i.tM (Sigma P8761/lot 013K0148).
(§3) On day 3, RNA isolation was performed. All surfaces were cleaned using RNase RNAy. Total RNA was isolated using MagMAX Express 96 RNA Isolation System (Life Technologies, AM1830). Briefly, hepatocytes were washed once with 1X PBS (phosphate buffered saline). 145 μL of RNA Lysis Buffer was added to each well and each well was mixed by pipetting several times. Lysate was then transferred to a well of a 96 well Binding Plate. Samples were then mixed with 20 μL magnetic beads coming from the kit. RNA bound to beads was then captured by the magnetic tip manifold and beads were washed with the wash solution. Samples were treated with TURBOTmDNase. After TURBOTmDNase treatment, RNA was rebound to beads and washed with the provided wash buffer an additional two times. Beads are then dried, and RNA was eluted with 50 μL elution buffer. The eluted mRNA was transferred from the wells to RNase-free sealable microtiter plates and stored at -80° C. until use.
(§4) Following mRNA isolation, reverse transcription (RT) reactions were performed using TaqmanTm Reverse Transcription Reagents (ThermoFisher Scientific). RT master mix was prepared by mixing 2.5 μL 10× RT buffer, 5.5 μL 25 mM MgCl2, 5μL deoxyNTP mixture, 1.25 50 mM random hexamers, 0.5 μL 2× RNAse inhibitor, 0.625 μL multiscript RTase (50U/μL) and 0.625 μL water. An aliquot of RT mix (16 μL) and an aliquot of mRNA sample (9 μL) was added to each well of a 96-well plate. The SimpliAmpTM Thermal cycler PCR System VIIA7 from Applied Biosystems was used for reverse transcription under the following conditions: segment 1: 25° C. for 10 minutes; segment 2: 45° C. for 45 minutes; segment 3: 95° C. for 5 minutes; and segment 4: 4° C. hold; with 1 cycle for each segment. […]

CYP3A4 mRNA = experiment: CYP3A4 Induction Assay (qPCR, human hepatocytes); format: in vitro ADME; settings: cryopreserved human hepatocytes (plated), 10 μM compound, mRNA fold over vehicle (0.1% DMSO)
Description: as §1, §2, §3, §4

Chain of human MALT-1 protein (Q9UDY8 whole entry): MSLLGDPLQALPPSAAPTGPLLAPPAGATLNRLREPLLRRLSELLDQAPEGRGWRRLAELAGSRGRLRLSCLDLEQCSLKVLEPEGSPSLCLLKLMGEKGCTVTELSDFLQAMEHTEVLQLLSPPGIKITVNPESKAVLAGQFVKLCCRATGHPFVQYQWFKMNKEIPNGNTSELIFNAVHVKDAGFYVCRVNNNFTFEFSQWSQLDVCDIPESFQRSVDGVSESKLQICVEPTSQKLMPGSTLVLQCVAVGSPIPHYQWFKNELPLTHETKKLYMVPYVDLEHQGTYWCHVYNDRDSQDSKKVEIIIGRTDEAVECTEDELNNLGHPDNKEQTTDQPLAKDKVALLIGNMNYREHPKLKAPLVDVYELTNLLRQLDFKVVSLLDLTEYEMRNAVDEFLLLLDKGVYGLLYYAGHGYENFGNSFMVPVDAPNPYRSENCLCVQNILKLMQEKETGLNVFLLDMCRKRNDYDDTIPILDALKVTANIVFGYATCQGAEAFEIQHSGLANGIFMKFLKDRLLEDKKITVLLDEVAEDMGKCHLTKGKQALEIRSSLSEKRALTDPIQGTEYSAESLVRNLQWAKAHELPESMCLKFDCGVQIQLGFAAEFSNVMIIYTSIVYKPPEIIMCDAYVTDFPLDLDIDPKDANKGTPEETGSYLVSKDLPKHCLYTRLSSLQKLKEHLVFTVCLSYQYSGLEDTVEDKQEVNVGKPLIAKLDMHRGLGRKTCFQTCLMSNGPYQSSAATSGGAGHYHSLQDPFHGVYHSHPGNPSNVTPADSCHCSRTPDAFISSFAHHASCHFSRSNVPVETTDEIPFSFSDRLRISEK

Compound	EC50 (human MALT-1 protein) [nM]	EC50 (OCI-LY3 IL6) [nM]	CYP3A4 % of positive control (%) (CYP 3A4 mRNA)	fold induction at 1 day, 10 µM (CYP3A4 mRNA)	CYP3A4 Fold induction (CYP 3A4 mRNA; mRNA fold over vehicle (0.1% DMSO))
CO[C@@H](C)c1c(Nc2ccc([C@H](N(C)C(=O)C3CCS(=O)(=O)CC3)C(F)(F)F)cc2F)cnc2sc(C)nc12 (single isomer, unassigned) [Example 10]	198	230	(84.8) %	8.24	–
Cc1nc2c([C@@H](C)C(F)(F)F)c(Nc3ccc([C@H](N(C)C(=O)C4CCS(=O)(=O)CC4)C(F)(F)F)cc3)cnc2s1 (single isomer, unassigned) [Example 38]	156	190	(19.9) %	2.72	–
Cc1nc2c([C@H](C)C(F)(F)F)c(Nc3ccc([C@H](N(C)C(=O)C4CCS(=O)(=O)CC4)C(F)(F)F)cc3)cnc2s1 (single isomer, unassigned) [Example 39]	83	40	(14.9) %	2.29	–
CO[C@@H](C)c1c(NC(=O)Nc2cnc(-n3nccn3)c(C(F)(F)F)c2)cnc2sc(C)nc12 [Comparative Example B, reference compound]	–	–	(25.3) %	–	2.32
CO[C@H](c1c(Nc2ccc([C@H](N(C)C(=O)C3CCS(=O)(=O)CC3)C(F)(F)F)cc2)cnc2sc(C)nc12)C(F)(F)F [Example 2, N-methyl-1,1-dioxo-N-{(1S)-2,2,2-trifluoro-1-[4-({2-methyl-7-[(1R)-2,2,2-trifluoro-1-methoxyethyl][1,3]thiazolo[5,4-b]pyridin-6-yl}amino)phenyl]ethyl}-1λ^6-thiane-4-carboxamide]	190	110	(2.19) %	1.13	–
CCN(C(=O)C1CCS(=O)(=O)CC1)[C@@H](c1ccc(Nc2cnc3sc(C)nc3c2[C@H](C)OC)cc1)C(F)(F)F [Example 7, N-ethyl-1,1-dioxo-N-{(1S)-2,2,2-trifluoro-1-[4-({7-[(1S)-1-methoxyethyl]-2-methyl[1,3]thiazolo [5,4-b]pyridin-6-yl}amino)phenyl]ethyl}-1λ^6-thiane-4-carboxamide]	135	140	(12.7) %	1.93	–
CO[C@@H](C)c1c(Nc2c(F)cc([C@H](N(C)C(=O)C3CCS(=O)(=O)CC3)C(F)(F)F)cc2F)cnc2sc(C)nc12 [Example 9, N-{(1S)-1-[3,5-difluoro-4-({7-[(1S)-1-methoxyethyl]-2-methyl[1,3]thiazolo[5,4-b]pyridin-6-yl}amino)phenyl]-2,2,2-trifluoroethyl}-N-methyl-1,1-dioxo-1λ^6-thiane-4-carboxamide]	102	140	(−5.95) %	0.548	–

Other lines, results leading:

EC50 (human MALT-1 protein) [nM]	EC50 (OCI-LY3 IL6) [nM]	CYP3A4 % of positive control (%) (CYP 3A4 mRNA)	fold induction at 1 day, 10 µM (CYP3A4 mRNA)	CYP3A4 Fold induction (CYP 3A4 mRNA; mRNA fold over vehicle (0.1% DMSO))	Compound
158	1330	(16.1) %	1.98	–	CO[C@@H](C)c1c(Nc2ccc([C@@H](C(F)F)N(C)C(=O)C3CCS(=O)(=O)CC3)cc2)cnc2sc(C)nc12 [Example 4, N-{(1S)-2,2-difluoro-1-[4-({7-[(1S)-1-methoxyethyl]-2-methyl[1,3]thiazolo[5,4-b]pyridin-6-y1}amino)phenyl]ethyl} -N-methyl-1,1-dioxo-1λ^6-thiane-4-carboxamide]
77	340	(15.3) %	1.77	–	CO[C@@H](c1c(Nc2ccc([C@H](N(C)C(=O)C3CCS(=O)(=O)CC3)C(F)(F)F)cc2)cnc2sc(C)nc12)C(F)F [Example 5, N-{(1S)-1-[4-({7-[(1S)-2,2-difluoro-l-methoxyethyl]-2-methyl[1,3]thiazolo [5,4-b]pyridin-6-yl}amino)phenyl]-2,2,2-trifluoroethyl}-N-methyl-1,1-dioxo-1λ^6-thiane-4-carboxamide]
146	210	(5.46) %	1.4	–	CO[C@H](c1c(Nc2ccc([C@@H](C(F)F)N(C)C(=O)C3CCS(=O)(=O)CC3)cc2)cnc2sc(C)nc12)C(F)F [Example 6, N-{(1S)-1-[4-({7-[(1R)-2,2-difluoro-l-methoxyethyl]-2-methyl[1,3]thiazolo[5,4-b]pyridin-6-y1}amino)phenyl]-2,2-difluoroethyl}-N-methyl-1,1-dioxo-1λ^6-thiane-4-carboxamide]
99	70	(9.23) %	1.53	–	CO[C@H](C)c1c(Nc2ccc([C@H](N(C)C(=O)C3CCS(=O)(=O)CC3)C(F)(F)F)cc2)cnc2sc(C)nc12 [Example 8, N-methyl-1,1-dioxo-N-{(1S)-2,2,2-trifluoro-1-[4-({7-[(1R)-1-methoxyethyl]-2-methyl[1,3]thiazolo [5,4-b]pyridin-6-yl}amino)phenyl]ethyl}-1λ^6-thiane-4-carboxamide]
155	390	(20) %	2.59	–	CO[C@@H](c1c(Nc2ccc([C@H](N(C)C(=O)C3CCS(=O)(=O)CC3)C(F)(F)F)cc2)cnc2sc(C)nc12)C(F)(F)F [Example 11, N-methyl-1,1-dioxo-N-{(1S)-2,2,2-trifluoro-1-[4-({2-methyl-7-[(1S)-2,2,2-trifluoro-1-methoxyethyl][1,3]thiazolo[5,4-b]pyridin-6-yl}amino)phenyl]ethyl}-1λ^6-thiane-4-carboxamide]
